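Five concentrations, 48 hours, 96-well plates. GI50 is the concentration that inhibits growth by half.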 Calls of active or inactive are those of the source. No stated cut-off is given here; in the data, active = GI50 up to about 1.1 µM and inactive = higher.
Experiments:
Experiment in all cases: NCI-60 cell line screen, 48 h
[1] = system: NCI-H226
[2] = system: UACC-62
[3] = system: COLO 205
[4] = system: SNB-75
[5] = system: SK-MEL-28
[6] = system: UO-31
[7] = system: LOX IMVI
[8] = system: UACC-257
[9] = system: SF-268
[10] = system: SK-OV-3
[11] = system: SN12C
[12] = system: KM12
[13] = system: HOP-62
[14] = system: HL-60
[15] = system: SNB-19
[16] = system: HCT-116

| Structure (SMILES) | GI50 [1] | GI50 [2] | GI50 [3] | GI50 [4] | GI50 [5] | GI50 [6] | GI50 [7] | GI50 [8] | GI50 [9] | GI50 [10] | GI50 [11] | GI50 [12] | GI50 [13] | GI50 [14] | GI50 [15] | GI50 [16] |
| --- | --- | --- | --- | --- | --- | --- | --- | --- | --- | --- | --- | --- | --- | --- | --- | --- |
| Cn1c(CCC#N)nc2ccc(Br)cc2c1=O | > 100 µM (inactive) | > 100 µM (inactive) | > 100 µM (inactive) | > 100 µM (inactive) | > 100 µM (inactive) | > 100 µM (inactive) | > 100 µM (inactive) | > 100 µM (inactive) | > 100 µM (inactive) | > 100 µM (inactive) | > 100 µM (inactive) | > 100 µM (inactive) | > 100 µM (inactive) | > 100 µM (inactive) |  |  |
| COc1cc(/C=C(\C#N)C(=O)c2ccccc2)cc(OC)c1OC | > 100 µM (inactive) | > 100 µM (inactive) | > 100 µM (inactive) | 38.1 µM (inactive) | > 100 µM (inactive) | > 100 µM (inactive) | > 100 µM (inactive) | > 100 µM (inactive) | > 100 µM (inactive) | > 100 µM (inactive) | > 100 µM (inactive) | > 100 µM (inactive) | > 100 µM (inactive) | > 100 µM (inactive) | > 100 µM (inactive) | > 100 µM (inactive) |
| CCCCC(C(=O)CCC(=O)Nc1ccc(Cl)cc1)C(=O)C(C)C (stereo unspecified) | > 100 µM (inactive) | 18.2 µM (inactive) | > 100 µM (inactive) | > 100 µM (inactive) | > 100 µM (inactive) | > 100 µM (inactive) | 30.5 µM (inactive) | > 100 µM (inactive) | > 100 µM (inactive) | > 100 µM (inactive) | > 100 µM (inactive) | > 100 µM (inactive) | > 100 µM (inactive) | > 100 µM (inactive) | > 100 µM (inactive) | > 100 µM (inactive) |
| Cc1cccc(C)c1NC(=O)C(=O)C1C(=O)NC(=O)NC1=O | > 100 µM (inactive) | > 100 µM (inactive) | > 100 µM (inactive) |  | > 100 µM (inactive) | > 100 µM (inactive) | > 100 µM (inactive) | > 100 µM (inactive) | > 100 µM (inactive) | > 100 µM (inactive) | > 100 µM (inactive) | > 100 µM (inactive) | > 100 µM (inactive) | > 100 µM (inactive) | > 100 µM (inactive) | > 100 µM (inactive) |
| CC1CN1c1c(C(=O)/C=C/c2ccccc2)c(-c2ccccc2)nn(C)c1=O (stereo unspecified) | 20.8 µM (inactive) | 16.2 µM (inactive) | 16.2 µM (inactive) | 18.8 µM (inactive) | 25.3 µM (inactive) | 15.5 µM (inactive) | 15.6 µM (inactive) | 18.1 µM (inactive) | 27.9 µM (inactive) | 31.6 µM (inactive) | 17.7 µM (inactive) | 20.8 µM (inactive) | 22 µM (inactive) | 17.2 µM (inactive) | 24.4 µM (inactive) | 17.5 µM (inactive) |
| COC(=O)C(=O)C1(CCC(C)=O)c2ccccc2-c2ccccc21 | > 100 µM (inactive) | 97.7 µM (inactive) | 76.9 µM (inactive) | 93.3 µM (inactive) | 94 µM (inactive) | 41 µM (inactive) | 62.1 µM (inactive) | 55.2 µM (inactive) | > 100 µM (inactive) | > 100 µM (inactive) | > 100 µM (inactive) | 74.3 µM (inactive) | 68.7 µM (inactive) | 35.5 µM (inactive) | > 100 µM (inactive) | 43.6 µM (inactive) |
| CCc1cccc(CC)c1NC(=O)C(=O)Cc1nc2ccccc2o1 | > 100 µM (inactive) | > 100 µM (inactive) | > 100 µM (inactive) |  | > 100 µM (inactive) | > 100 µM (inactive) | > 100 µM (inactive) | > 100 µM (inactive) | > 100 µM (inactive) | > 100 µM (inactive) | > 100 µM (inactive) | > 100 µM (inactive) | > 100 µM (inactive) | > 100 µM (inactive) | > 100 µM (inactive) | > 100 µM (inactive) |
| C[n+]1c2ccccc2c(CNc2ccc(S(=O)(=O)N=C(N)N)cc2)c2ccccc21 | 1.6 µM (inactive) | 10.4 µM (inactive) |  | 4.13 µM (inactive) | 12.4 µM (inactive) | 14.4 µM (inactive) | 3.29 µM (inactive) | 16 µM (inactive) | 7.06 µM (inactive) | 46 µM (inactive) | 3.16 µM (inactive) | 13.2 µM (inactive) | 4.09 µM (inactive) | 1.46 µM (inactive) | 4.05 µM (inactive) | 5.78 µM (inactive) |
| CN1OC2OC(=O)OC2[C@H]1[C@H]1O[C@H](c2ccccc2)OC1(C)c1cc(OC(=O)c2ccccc2)ccc1OC(=O)c1ccccc1 (stereo partly specified) | > 50 µM (inactive) |  | > 50 µM (inactive) | > 50 µM (inactive) | > 50 µM (inactive) | > 50 µM (inactive) | > 50 µM (inactive) | > 50 µM (inactive) | > 50 µM (inactive) | > 50 µM (inactive) | > 50 µM (inactive) | > 50 µM (inactive) | > 50 µM (inactive) | > 50 µM (inactive) | > 50 µM (inactive) | > 50 µM (inactive) |
| OCC(O)C(O)C(O)c1nn(-c2ccc(Cl)cc2)c2nc3cc(Cl)c(Cl)cc3nc12 (stereo unspecified) | 21.1 µM (inactive) | 47 µM (inactive) | > 100 µM (inactive) | 3.66 µM (inactive) | 61.1 µM (inactive) | 71.6 µM (inactive) | 39.3 µM (inactive) | 86.3 µM (inactive) | 71.1 µM (inactive) | 23.8 µM (inactive) | > 100 µM (inactive) | > 10 µM (inactive) | 20.1 µM (inactive) | > 100 µM (inactive) | 33.7 µM (inactive) | > 100 µM (inactive) |
| OCC(O)C(O)C(O)c1nnn[nH]1 (stereo unspecified) | 34.8 µM (inactive) | > 100 µM (inactive) | > 100 µM (inactive) | > 100 µM (inactive) |  | > 100 µM (inactive) | > 100 µM (inactive) |  | > 100 µM (inactive) | > 100 µM (inactive) | > 100 µM (inactive) | > 100 µM (inactive) | > 100 µM (inactive) | > 100 µM (inactive) |  | > 100 µM (inactive) |
| Clc1ccc(/C=C/c2csnn2)cc1 | > 100 µM (inactive) | > 100 µM (inactive) | > 100 µM (inactive) | > 100 µM (inactive) | > 100 µM (inactive) | > 100 µM (inactive) | > 100 µM (inactive) | > 100 µM (inactive) | > 100 µM (inactive) | > 100 µM (inactive) | > 100 µM (inactive) | > 100 µM (inactive) | > 100 µM (inactive) | > 100 µM (inactive) | > 100 µM (inactive) | > 100 µM (inactive) |
| C[C@H]1NC(=O)C2CCCCN2C(=O)CN(C)C(=O)CNC(=O)C2CCCCN2C(=O)[C@@H](NC(=O)c2nc3ccccc3cc2O)[C@@H](C)NC(=O)C2CCCCN2C(=O)CN(C)C(=O)CNC(=O)[C@@H]2CCCCN2C(=O)C1NC(=O)c1nc2ccccc2cc1O (stereo partly specified) | 0.0664 µM (active) | 0.0229 µM (active) | 0.252 µM (active) | 0.0598 µM (active) | 0.212 µM (active) | 0.25 µM (active) | 0.169 µM (active) | 0.185 µM (active) | 0.186 µM (active) | 0.482 µM (active) | 0.313 µM (active) | 0.27 µM (active) | 0.251 µM (active) | 2.03 µM (inactive) | 0.241 µM (active) |  |
| CCCNCc1nc2ccc(Br)cc2c(=O)n1CCC | 12.5 µM (inactive) | 6.93 µM (inactive) | 14.6 µM (inactive) | 17.1 µM (inactive) | 15.3 µM (inactive) | 16.2 µM (inactive) | 4.93 µM (inactive) | 13.3 µM (inactive) | 13.6 µM (inactive) | 18.7 µM (inactive) | 13.6 µM (inactive) | 15.1 µM (inactive) | 22 µM (inactive) | 6.53 µM (inactive) | 16.8 µM (inactive) | 9.98 µM (inactive) |
| CC(C)(C)c1ccc(Oc2ccc(C#N)c(C#N)c2)c(C(C)(C)C)c1 | 46.6 µM (inactive) | 52.1 µM (inactive) | 28.3 µM (inactive) | > 26.3 µM (inactive) | 51.5 µM (inactive) | 32.7 µM (inactive) | 30.6 µM (inactive) | 29.4 µM (inactive) | 32.7 µM (inactive) | > 100 µM (inactive) | 43 µM (inactive) | 29.8 µM (inactive) | > 100 µM (inactive) | 10.4 µM (inactive) | 49.5 µM (inactive) | 24.6 µM (inactive) |
| COc1cc2c(cc1O)[C@H](Cc1ccc(Oc3cc(C[C@H]4c5cc(OC)c(OC)cc5CCN4C)ccc3OC)cc1)NCC2 | 12.7 µM (inactive) | 17.8 µM (inactive) | 17.9 µM (inactive) | 6.56 µM (inactive) | 16.8 µM (inactive) | 8.75 µM (inactive) | 8.95 µM (inactive) | 15.8 µM (inactive) | 11.1 µM (inactive) |  | 14.8 µM (inactive) | 12.9 µM (inactive) | > 10 µM (inactive) | 12.4 µM (inactive) | 16.1 µM (inactive) | 8.11 µM (inactive) |
| COc1cccc(NC(=O)CC(=O)N2N=C(N(CCC#N)c3ccc(Cl)cc3)CC2c2ccccc2)c1 (stereo unspecified) | > 100 µM (inactive) | > 100 µM (inactive) | > 100 µM (inactive) | > 100 µM (inactive) | > 100 µM (inactive) | > 100 µM (inactive) | > 100 µM (inactive) | > 100 µM (inactive) | > 100 µM (inactive) | > 100 µM (inactive) | > 100 µM (inactive) | > 100 µM (inactive) | > 100 µM (inactive) | > 100 µM (inactive) | > 100 µM (inactive) | > 100 µM (inactive) |
